Assay results taken from patent US11578060B2, “JAK3 selective inhibitor” (PEKING UNIVERSITY SHENZHEN GRADUATE SCHOOL, priority 2018, dated 2023).

Tests used:
PKCα = PKCα (Homo sapiens, UniProt P17252); assay: Selectivity assay against a panel of kinases: PKCα; type: biochemical; settings: tested at 1 μM
PKCγ = PKCγ (Homo sapiens, UniProt P05129); assay: Selectivity assay against a panel of kinases: PKCγ; type: biochemical; settings: tested at 1 μM
GSK3β = GSK3β (Homo sapiens, UniProt P49841); assay: Selectivity assay against a panel of kinases: GSK3β; type: biochemical; settings: tested at 1 μM
[1] = test system: IL-15-induced STAT5 phosphorylation; assay: IL-15-induced STAT5 phosphorylation in PBMC (Western blot); type: cell-based, human
[2] = test system: STAT3 phosphorylation (IL-6 signal pathway); assay: Cellular selectivity assay: IL-6-stimulated STAT3 phosphorylation in PBMCs; type: cell-based, human; settings: IL-6, doses as high as 10 μM
[3] = test system: STAT1 phosphorylation (IFN-α signal pathway); assay: Cellular selectivity assay: IFN-α-stimulated STAT1 phosphorylation in PBMCs; type: cell-based, human; settings: doses as high as 10 μM
STAT5 phosphorylation = assay: Cell washout experiment, IL-15-stimulated CTLL-2 cells; type: cell-based, Mouse; settings: CTLL-2, 2 h treatment, washed three times, IL-15 30 min
Method: The washout procedures are as follows: CTLL-2 cells were treated with compounds for 2 hours. Then, for washout groups, cells were washed three times with PBS. The non-washout groups were kept constant. Cells were then stimulated with IL-15 for 30 min, lysed, and subjected to standard Western blot. Cells, treated with compounds, were extensively washed with PBS.

IL-6 release = assay: LPS-induced IL-6 release assay in PBMCs (ELISA); type: cell-based, human; settings: LPS-challenged PBMCs, 24 h
Method: (§1) The LPS-induced IL-6 and TNF-α release assay was carried out as follows: frozen PBMCs (from Allcells) were thawed in RPMI1640 (Thermo Fisher) containing 10% FBS and recovered overnight at 37° C. The next day, cells were diluted to 1×10^6 cells/mL and seeded (500 μL) in 6-well plates. Compounds or DMSO (5 μL, serially diluted in DMSO) were added to the plates and incubated with cells for 2 h at 37° C., followed by stimulation with LPS (5 μL, 1 μg/mL) and incubation for 24 h at 37° C. in 5% CO2. Supernatants were collected for determination of IL-6 and TNF-α levels using human IL-6 or human THF-α DuoSet ELISA Kits (R&D Systems) according to the manufacturer's instructions.

TNF-α release = assay: LPS-induced TNF-α release assay in PBMCs (ELISA); type: cell-based, human; settings: LPS-challenged PBMCs, 24 h
Method: as §1

MCP-1 release = assay: IL-6 stimulated MCP-1 release assay; type: cell-based, human
Method: as §1
IL-6 stimulated inflammatory cytokine MCP-1 release assay was performed in a similar way.

panel of kinases = settings: tested at 1 μM
[4] = test system: IL-2-induced STAT5 phosphorylation; assay: IL-2-induced STAT5 phosphorylation in PBMC (Western blot)
[5] = test system: phosphorylation of downstream substrates of JAKs; settings: PBMCs; IL-15, IL-6, IFN-α

Sequence of GSK3β (P49841 whole entry, species assumed): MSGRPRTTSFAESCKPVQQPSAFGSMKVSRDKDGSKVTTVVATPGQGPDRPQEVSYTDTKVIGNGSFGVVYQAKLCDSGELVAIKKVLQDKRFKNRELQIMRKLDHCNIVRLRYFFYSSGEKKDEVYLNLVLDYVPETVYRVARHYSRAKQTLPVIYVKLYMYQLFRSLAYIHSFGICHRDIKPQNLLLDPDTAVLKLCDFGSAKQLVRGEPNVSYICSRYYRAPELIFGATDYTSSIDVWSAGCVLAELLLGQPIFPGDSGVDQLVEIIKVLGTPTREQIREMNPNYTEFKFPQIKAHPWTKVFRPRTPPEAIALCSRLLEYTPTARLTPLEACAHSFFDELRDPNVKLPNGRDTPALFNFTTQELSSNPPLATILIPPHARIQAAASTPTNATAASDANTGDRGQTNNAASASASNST

**Q.** `C=CC(=O)N1CCN(c2ccc([N+](=O)[O-])c(C3=C(c4c[nH]c5ccccc45)C(=O)NC3=O)c2)CC1` [Compound 32, 3-(5-(4-acryloylpiperazin-1-yl)-2-(nitro)phenyl)-4-(1H-indol-3-yl)-1H-pyrrole-2,5-dione] was tested. Which inhibition at 1 µM (PKCα) did it give?
**A.** > 50%

**Q.** What about the inhibition at 1 µM (PKCγ) of the same compound?
**A.** > 50%

**Q.** And the inhibition at 1 µM (GSK3β)?
**A.** > 50%

**Q.** What about the “inhibitory activity against IL-15-induced STAT5 phosphorylation compared with NIBR3049” value ([1]; PBMC) of the same compound?
**A.** higher inhibitory activity

**Q.** And the “concentration that effectively abrogated phosphorylation of STAT5” value ([1]; PBMCs, IL-15 stimulation)?
**A.** 300 nM

**Q.** And the “inhibition of STAT3 phosphorylation” value [2]?
**A.** only partial inhibition

**Q.** What about the “inhibition of STAT1 phosphorylation” value [3] of the same compound?
**A.** only partial inhibition

**Q.** What about the “inhibition of STAT5 phosphorylation after washing out with PBS” value (“inhibition of STAT5 phosphorylation” below) (STAT5 phosphorylation) of the same compound?
**A.** sustained inhibition of STAT5 phosphorylation

**Q.** What about the “effect on LPS-induced release of IL-6” value (IL-6 release) of the same compound?
**A.** significantly inhibited

**Q.** What about the “effect on LPS-induced release of TNF-α” value (TNF-α release) of the same compound?
**A.** significantly inhibited

**Q.** What about the “effect on IL-6-induced MCP-1 release” value (MCP-1 release) of the same compound?
**A.** did not inhibit

**Q.** What about the “inhibition of most kinases of the panel” value (panel of kinases) of the same compound?
**A.** no more than 50%

**Q.** And the “inhibitory activity against IL-2-induced STAT5 phosphorylation compared with NIBR3049” value [4]?
**A.** higher inhibitory activity

**Q.** `CC(C)(O)C(=O)N1CCN(c2ccc(C(F)(F)F)c(C3=C(c4c[nH]c5ccccc45)C(=O)NC3=O)c2)CC1` [NIBR3049, reference compound] was tested. Which “inhibition of STAT5 phosphorylation” value (STAT5 phosphorylation) did it give?
**A.** almost lost after washing out

**Q.** With Tofacitinib [reference compound] as the compound, how does the “inhibition of STAT5 phosphorylation” value (STAT5 phosphorylation) read?
**A.** almost lost after washing out

**Q.** What about the “effect on LPS-induced release of IL-6” value (IL-6 release) of the same compound?
**A.** increased cytokine production in different degrees

**Q.** And the “effect on LPS-induced release of TNF-α” value (TNF-α release)?
**A.** increased cytokine production in different degrees

**Q.** What about the “effect on IL-6-induced MCP-1 release” value (MCP-1 release) of the same compound?
**A.** did not inhibit

**Q.** And the “cellular selectivity among JAKs (three cytokines)” value [5]?
**A.** did not show obvious selectivity
